Laboratory results reported in the kinase profiling compilation of Christmann-Franck et al. (2016).

Key:
[1] = target: AAK1 (human) (UniProt Q2M2I8)
[2] = target: TESK1 (human) (UniProt Q15569)
[3] = target: MAP3K2 (human) (UniProt Q9Y2U5)
[4] = target: TAOK2 (human) (UniProt Q9UL54)
[5] = target: JAK1 JH1 JH2 (human) (UniProt P23458)
[6] = target: RPS6KA1 KD1 KD2 (human) (UniProt Q15418)
[7] = target: EIF2AK4 KD1 KD2 (human) (UniProt Q9P2K8)
[8] = target: TEC (human) (UniProt P42680)
[9] = target: MAP2K1 (human) (UniProt Q02750)

Chain of EIF2AK4 KD1 KD2 (human) (Q9P2K8 whole entry, looked up): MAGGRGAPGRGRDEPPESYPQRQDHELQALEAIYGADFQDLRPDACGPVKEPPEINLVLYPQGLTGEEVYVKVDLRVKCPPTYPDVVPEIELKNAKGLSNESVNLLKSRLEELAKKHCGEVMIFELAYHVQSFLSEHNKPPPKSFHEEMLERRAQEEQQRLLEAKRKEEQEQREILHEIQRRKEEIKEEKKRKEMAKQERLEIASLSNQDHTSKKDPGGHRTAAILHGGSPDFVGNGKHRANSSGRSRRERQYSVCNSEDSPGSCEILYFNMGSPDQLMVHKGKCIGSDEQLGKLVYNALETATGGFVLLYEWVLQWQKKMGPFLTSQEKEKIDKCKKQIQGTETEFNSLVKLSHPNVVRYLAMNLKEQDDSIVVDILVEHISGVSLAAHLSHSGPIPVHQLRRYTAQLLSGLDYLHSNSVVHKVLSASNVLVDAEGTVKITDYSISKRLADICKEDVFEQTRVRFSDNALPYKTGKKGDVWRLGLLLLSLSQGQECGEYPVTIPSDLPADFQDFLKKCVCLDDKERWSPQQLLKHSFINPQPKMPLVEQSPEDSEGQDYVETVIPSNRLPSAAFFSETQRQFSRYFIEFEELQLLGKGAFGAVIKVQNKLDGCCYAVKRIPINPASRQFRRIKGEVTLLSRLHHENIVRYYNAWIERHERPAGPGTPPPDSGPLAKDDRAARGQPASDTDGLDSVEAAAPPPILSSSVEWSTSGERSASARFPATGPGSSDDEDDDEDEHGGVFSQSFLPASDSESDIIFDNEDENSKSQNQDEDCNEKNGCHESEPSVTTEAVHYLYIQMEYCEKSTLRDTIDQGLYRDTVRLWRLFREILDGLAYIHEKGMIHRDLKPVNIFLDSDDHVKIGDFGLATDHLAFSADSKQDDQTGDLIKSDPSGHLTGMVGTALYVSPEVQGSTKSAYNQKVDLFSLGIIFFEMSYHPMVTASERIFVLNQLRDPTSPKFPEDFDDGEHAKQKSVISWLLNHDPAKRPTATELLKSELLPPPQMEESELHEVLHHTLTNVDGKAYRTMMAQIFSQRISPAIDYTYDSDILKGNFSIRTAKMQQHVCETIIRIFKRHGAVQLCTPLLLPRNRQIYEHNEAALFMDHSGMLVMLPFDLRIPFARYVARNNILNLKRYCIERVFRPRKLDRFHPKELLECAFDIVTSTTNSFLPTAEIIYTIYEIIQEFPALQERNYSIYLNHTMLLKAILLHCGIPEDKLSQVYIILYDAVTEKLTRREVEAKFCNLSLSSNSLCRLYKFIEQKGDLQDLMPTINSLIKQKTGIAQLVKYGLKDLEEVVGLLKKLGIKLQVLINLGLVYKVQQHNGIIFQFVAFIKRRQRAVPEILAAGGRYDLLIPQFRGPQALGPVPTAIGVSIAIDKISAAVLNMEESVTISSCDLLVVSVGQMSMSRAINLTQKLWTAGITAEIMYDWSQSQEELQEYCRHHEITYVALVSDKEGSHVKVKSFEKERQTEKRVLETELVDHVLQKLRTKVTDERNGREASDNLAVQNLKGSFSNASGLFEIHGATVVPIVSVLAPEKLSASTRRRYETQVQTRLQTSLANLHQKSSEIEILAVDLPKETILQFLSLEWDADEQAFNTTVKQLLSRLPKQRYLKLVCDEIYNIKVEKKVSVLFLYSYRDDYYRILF
Chain of JAK1 JH1 JH2 (human) (P23458 whole entry, looked up): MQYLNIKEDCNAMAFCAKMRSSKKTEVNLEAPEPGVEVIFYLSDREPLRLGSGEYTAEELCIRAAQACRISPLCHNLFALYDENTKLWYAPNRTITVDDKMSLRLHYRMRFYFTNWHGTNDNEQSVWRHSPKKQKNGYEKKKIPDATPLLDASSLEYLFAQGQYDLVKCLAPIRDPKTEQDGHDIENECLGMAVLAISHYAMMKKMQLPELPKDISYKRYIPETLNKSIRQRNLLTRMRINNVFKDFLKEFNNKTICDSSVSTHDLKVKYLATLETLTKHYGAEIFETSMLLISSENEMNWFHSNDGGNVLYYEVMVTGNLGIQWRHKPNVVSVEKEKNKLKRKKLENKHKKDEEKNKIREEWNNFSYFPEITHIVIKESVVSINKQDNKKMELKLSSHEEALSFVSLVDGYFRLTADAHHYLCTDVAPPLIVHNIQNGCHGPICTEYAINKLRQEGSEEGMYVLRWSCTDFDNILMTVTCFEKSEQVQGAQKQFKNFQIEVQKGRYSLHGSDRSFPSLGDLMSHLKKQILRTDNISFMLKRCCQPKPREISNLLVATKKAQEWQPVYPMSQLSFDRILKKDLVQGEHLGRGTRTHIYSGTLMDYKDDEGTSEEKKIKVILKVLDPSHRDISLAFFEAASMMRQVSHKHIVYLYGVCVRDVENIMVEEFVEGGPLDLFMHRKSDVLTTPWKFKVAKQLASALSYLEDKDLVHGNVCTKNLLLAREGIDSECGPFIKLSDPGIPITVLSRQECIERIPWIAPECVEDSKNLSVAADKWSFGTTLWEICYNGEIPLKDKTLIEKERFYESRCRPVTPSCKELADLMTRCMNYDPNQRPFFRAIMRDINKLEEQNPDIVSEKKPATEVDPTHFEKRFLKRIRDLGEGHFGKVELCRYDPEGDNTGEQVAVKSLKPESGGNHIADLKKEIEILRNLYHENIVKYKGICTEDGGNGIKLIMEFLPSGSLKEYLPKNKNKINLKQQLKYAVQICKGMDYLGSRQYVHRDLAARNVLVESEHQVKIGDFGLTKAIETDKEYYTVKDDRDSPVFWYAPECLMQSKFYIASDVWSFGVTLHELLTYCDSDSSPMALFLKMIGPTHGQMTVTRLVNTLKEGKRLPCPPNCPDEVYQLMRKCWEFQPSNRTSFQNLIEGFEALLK
Chain of MAP3K2 (human) (Q9Y2U5 whole entry, looked up): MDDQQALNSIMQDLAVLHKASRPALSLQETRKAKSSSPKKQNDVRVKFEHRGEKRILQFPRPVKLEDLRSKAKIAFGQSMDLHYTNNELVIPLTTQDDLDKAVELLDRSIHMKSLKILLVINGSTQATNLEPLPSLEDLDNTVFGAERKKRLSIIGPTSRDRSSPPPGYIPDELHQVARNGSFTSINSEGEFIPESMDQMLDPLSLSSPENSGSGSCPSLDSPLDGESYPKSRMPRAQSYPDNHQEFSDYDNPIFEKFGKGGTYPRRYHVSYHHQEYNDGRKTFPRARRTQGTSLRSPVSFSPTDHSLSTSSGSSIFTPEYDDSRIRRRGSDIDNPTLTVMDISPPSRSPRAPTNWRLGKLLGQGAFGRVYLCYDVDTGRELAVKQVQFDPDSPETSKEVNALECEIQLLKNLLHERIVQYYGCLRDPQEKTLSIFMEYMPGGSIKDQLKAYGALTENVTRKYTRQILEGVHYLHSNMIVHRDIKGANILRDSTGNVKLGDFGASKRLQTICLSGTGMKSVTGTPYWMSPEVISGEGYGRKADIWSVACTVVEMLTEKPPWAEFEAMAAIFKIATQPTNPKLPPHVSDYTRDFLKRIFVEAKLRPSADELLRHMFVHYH
Chain of TESK1 (human) (Q15569 whole entry, looked up): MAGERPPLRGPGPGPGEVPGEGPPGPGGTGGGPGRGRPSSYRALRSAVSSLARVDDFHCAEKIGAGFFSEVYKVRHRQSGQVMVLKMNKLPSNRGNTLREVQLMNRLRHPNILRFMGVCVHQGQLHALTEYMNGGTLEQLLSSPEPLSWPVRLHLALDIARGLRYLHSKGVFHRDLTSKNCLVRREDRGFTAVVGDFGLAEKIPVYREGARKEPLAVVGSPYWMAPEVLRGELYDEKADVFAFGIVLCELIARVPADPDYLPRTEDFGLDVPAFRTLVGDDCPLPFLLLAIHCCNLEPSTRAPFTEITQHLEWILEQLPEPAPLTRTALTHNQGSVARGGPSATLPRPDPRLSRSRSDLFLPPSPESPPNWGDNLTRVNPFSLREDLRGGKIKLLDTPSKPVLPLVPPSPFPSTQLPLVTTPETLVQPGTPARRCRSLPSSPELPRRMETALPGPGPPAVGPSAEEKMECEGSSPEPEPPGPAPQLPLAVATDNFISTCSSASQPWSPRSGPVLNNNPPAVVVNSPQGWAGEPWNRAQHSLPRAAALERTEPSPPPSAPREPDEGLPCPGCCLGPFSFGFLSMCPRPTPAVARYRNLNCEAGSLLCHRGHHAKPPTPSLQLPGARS
Chain of AAK1 (human) (Q2M2I8 whole entry, looked up): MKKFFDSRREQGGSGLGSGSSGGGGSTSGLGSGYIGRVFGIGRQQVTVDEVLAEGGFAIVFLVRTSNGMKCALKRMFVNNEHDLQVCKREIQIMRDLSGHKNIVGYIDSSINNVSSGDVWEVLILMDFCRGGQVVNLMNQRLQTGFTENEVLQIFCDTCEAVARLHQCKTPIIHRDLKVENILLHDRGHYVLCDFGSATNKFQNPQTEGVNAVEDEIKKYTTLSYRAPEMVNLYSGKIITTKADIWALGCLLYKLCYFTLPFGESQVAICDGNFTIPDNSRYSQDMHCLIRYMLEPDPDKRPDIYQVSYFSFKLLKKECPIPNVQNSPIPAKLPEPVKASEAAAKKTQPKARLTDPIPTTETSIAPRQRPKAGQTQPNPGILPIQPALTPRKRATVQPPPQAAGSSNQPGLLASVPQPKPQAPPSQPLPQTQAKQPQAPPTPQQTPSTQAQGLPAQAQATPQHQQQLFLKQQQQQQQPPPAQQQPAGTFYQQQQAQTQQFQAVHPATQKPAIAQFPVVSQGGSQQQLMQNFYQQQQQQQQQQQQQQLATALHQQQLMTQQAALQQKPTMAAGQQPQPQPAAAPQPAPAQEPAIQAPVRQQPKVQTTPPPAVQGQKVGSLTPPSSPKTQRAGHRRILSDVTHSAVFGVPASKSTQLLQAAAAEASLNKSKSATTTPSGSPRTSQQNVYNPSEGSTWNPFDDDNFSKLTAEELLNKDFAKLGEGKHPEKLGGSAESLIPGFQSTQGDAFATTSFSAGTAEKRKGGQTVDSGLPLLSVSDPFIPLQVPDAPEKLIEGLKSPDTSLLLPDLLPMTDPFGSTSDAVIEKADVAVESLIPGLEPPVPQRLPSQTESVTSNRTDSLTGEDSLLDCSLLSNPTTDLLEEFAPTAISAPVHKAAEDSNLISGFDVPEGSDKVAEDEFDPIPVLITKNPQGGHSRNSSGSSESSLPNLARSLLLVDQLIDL

IC50 [1]: > 10 µM | IC50 [2]: > 10 µM | IC50 [3]: > 10 µM | IC50 [4]: 8.47 µM | IC50 [5]: > 10 µM | IC50 [6]: 8.74 µM | IC50 [7]: > 10 µM | IC50 [8]: > 10 µM | IC50 [9]: > 10 µM
SMILES: CN1CC[C@H](c2c(O)cc(O)c3c(=O)cc(-c4ccccc4Cl)oc23)[C@H](O)C1
